Results taken from patent publication US9297810B2, “CD40L-binding agent based platelet aggregation assays” (BIOGEN IDEC MA INC., priority 2005, dated 2016).
Values joined by “and” are separate entries in the source; they are usually repeats but may differ in a detail not shown here. Identical values can stand only once. “Also recorded” adds a separate entry of the source.

Tests used:
[1] = tested on: ADP-Activated Platelets / resting platelets (platelet rich plasma); assay: Platelet aggregation assay (PRP, Biodata PAP-4 aggregation profiler); type: cell-based, human; conditions: for effect on aggregation of resting platelets: no ADP; for effect on the aggregation of ADP-activated platelets: wide range of ADP concentrations
Description: All platelets used in the in vitro platelet aggregation experiments were isolated from healthy human volunteers who denied ingesting aspirin or aspirin containing compounds within 10 days. Aggregation assays were performed on PRP. Approximately 50 mL of whole blood was collected in aliquots in 4.5 mL vacutainer tubes containing 0.5 mL of 3.8% sodium citrate. PRP was prepared by centrifuging the anticoagulated blood at 200 g for 10 minutes and harvesting the supernatant.
The Biodata 4-channel platelet aggregation profiler (PAP-4; Biodata Corp., Hatboro, Pa.) was blanked using a cuvette containing only platelet poor plasma (PPP). A 350 μL aliquot of PRP, containing approximately 2 to 5×10^8/mL platelets, was added to a cuvette containing a stir bar. Anti-CD40L antibody, human IgG, normal human serum, CD40-Fc, or anti-hFc were added in a total volume of 100 μL. The loaded cuvette was placed in the machine and the reaction components mixed prior to the addition of ADP.
Aggregation was initiated with the addition of sub-optimal concentration of ADP in 50 μL (final concentration varies for each individual sample). The aggregation profiler has four ports, which can run simultaneously. An aggregation tracing was generated for each sample for four minutes following the addition of ADP. At the end of the tracing, the instrument calculates the percentage of aggregation by comparing the transmission of light through the sample to the transmission of light through the PPP blank. A titration was performed at the beginning of each experiment, and subsequent runs were performed at a suboptimal ADP concentration.

[2] = target: T1, CD40L on the platelet surface (Homo sapiens, UniProt P29965); assay: Binding of biotin-conjugated anti-CD40L antibody to platelets (western blotting with HRP-streptavidin); conditions: data not shown
T1 construct: Platelets were incubated with a biotin-conjugated anti-CD40L antibody to determine whether CD40L is present on the surface of platelets; endogenous in cells
T1 sequence (P29965 1-261): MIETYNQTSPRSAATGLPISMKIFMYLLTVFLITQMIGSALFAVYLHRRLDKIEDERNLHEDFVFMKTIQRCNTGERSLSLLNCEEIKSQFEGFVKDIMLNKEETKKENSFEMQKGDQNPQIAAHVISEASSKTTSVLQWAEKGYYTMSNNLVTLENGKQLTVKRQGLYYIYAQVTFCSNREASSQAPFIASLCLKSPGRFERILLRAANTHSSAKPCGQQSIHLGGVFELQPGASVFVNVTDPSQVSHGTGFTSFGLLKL

[3] = result in words, listed as Anti-CD40L antibody

## BG9588: Research-grade anti-CD40L antibody prepared at Biogen; table column BG9588 corresponds to it
[1]; 2 μg/mL, cross-linked with anti-hFc (Table 5)
  effect on aggregation of cross-linking of antibody bound to CD40L on activated platelets: may enhance aggregation under limited conditions
[1]; FIG. 3, 233 μg/mL antibody and 30 μg/mL sCD40L, PRP of ten healthy donors, sub-optimal ADP
  effect on platelet aggregation of anti-CD40L antibody cross-linked by sCD40L: affected; also recorded: enhanced aggregation occurred with platelets isolated from some, but not all, healthy donors; also recorded: induced
[1]; FIG. 4, 200 μg/mL with sCD40L 30 μg/mL, 0.75 μM ADP, one donor
  effect on platelet aggregation together with sCD40L: specifically enhanced
[1]; Table 1, 5 μg/mL, ADP 0.00 μM (resting platelets)
  % of Aggregation: 11%
[1]; Table 1, 5 μg/mL, ADP 0.37 μM
  % of Aggregation: 15%
[1]; Table 1, 5 μg/mL, ADP 0.70 μM
  % of Aggregation: 24%
[1]; Table 1, 5 μg/mL, ADP 2.00 μM
  % of Aggregation: 21%
[1]; Table 1, 5 μg/mL, ADP 6.70 μM
  % of Aggregation: 71%
[1]; Table 1, 5 μg/mL, ADP 20.00 μM, PRP, four-minute tracing
  % of Aggregation: 72%
[1]; Table 2, 5 μg/mL, ADP 0.37 μM
  % of Aggregation: 10%
[1]; Table 2, 5 μg/mL, ADP 0.70 μM
  % of Aggregation: 10%
[1]; Table 2, 5 μg/mL, ADP 2.00 μM
  % of Aggregation: 12%
[1]; Table 2, 5 μg/mL, ADP 6.70 μM
  % of Aggregation: 78%
[1]; Table 2, 5 μg/mL, ADP 20.00 μM
  % of Aggregation: 80%
[1]; Table 3, 5 μg/mL, ADP 0.00 μM (resting platelets)
  % of Aggregation: 3%
[1]; Table 3, 5 μg/mL, ADP 0.30 μM
  % of Aggregation: 10%
[1]; Table 3, 5 μg/mL, ADP 0.60 μM
  % of Aggregation: 10%
[1]; Table 3, 5 μg/mL, ADP 1.25 μM
  % of Aggregation: 12%
[1]; Table 3, 5 μg/mL, ADP 2.50 μM
  % of Aggregation: 62%
[1]; Table 3, 5 μg/mL, ADP 5.00 μM
  % of Aggregation: 67%
[1]; Table 3, 5 μg/mL, ADP 10.00 μM
  % of Aggregation: 69%
[1]; Table 3, 5 μg/mL, ADP 20.00 μM
  % of Aggregation: 68%
[1]; Table 4, 1.25 μg/mL, ADP 0.00 μM
  % of Aggregation: 3%
[1]; Table 4, 2.50 μg/mL, ADP 0.00 μM
  % of Aggregation: 5%
[1]; Table 4, 5.00 μg/mL, ADP 0.00 μM
  % of Aggregation: 3%
[1]; Table 4, 10.00 μg/mL, ADP 0.00 μM
  % of Aggregation: 3%
[1]; Table 4, 20.00 μg/mL, ADP 0.00 μM
  % of Aggregation: 3%
[1]; Table 5, BG9588 2 μg/mL + anti-hFc 2.22 μg/mL, ADP 0.0 μM
  % of Aggregation: 3%
[1]; Table 5, BG9588 2 μg/mL + anti-hFc 2.22 μg/mL, ADP 0.5 μM
  % of Aggregation: 8%
[1]; Table 5, BG9588 2 μg/mL + anti-hFc 2.22 μg/mL, ADP 1.0 μM
  % of Aggregation: 76%
[1]; Table 5, BG9588 2 μg/mL + anti-hFc 6.66 μg/mL, ADP 0.0 μM
  % of Aggregation: 3%
[1]; Table 5, BG9588 2 μg/mL + anti-hFc 6.66 μg/mL, ADP 0.5 μM
  % of Aggregation: 8%
[1]; Table 5, BG9588 2 μg/mL + anti-hFc 6.66 μg/mL, ADP 1.0 μM
  % of Aggregation: 84%
[1]; Table 5, BG9588 2 μg/mL + anti-hFc 20.00 μg/mL, ADP 0.0 μM
  % of Aggregation: 3% and 4%
[1]; Table 5, BG9588 2 μg/mL + anti-hFc 20.00 μg/mL, ADP 0.5 μM
  % of Aggregation: 8%
[1]; Table 5, BG9588 2 μg/mL + anti-hFc 20.00 μg/mL, ADP 1.0 μM
  % of Aggregation: 83%
[1]; Table 5, BG9588 2 μg/mL alone, ADP 0.0 μM
  % of Aggregation: 3%
[1]; Table 6, resting platelets, BG9588 2 μg/mL + serum 0.00032x
  % of Aggregation: 6%
[1]; Table 6, resting platelets, BG9588 2 μg/mL + serum 0.0016x
  % of Aggregation: 6%
[1]; Table 6, resting platelets, BG9588 2 μg/mL + serum 0.008x
  % of Aggregation: 7%
[1]; Table 6, resting platelets, BG9588 2 μg/mL + serum 0.04x
  % of Aggregation: 6%
[1]; Table 6, resting platelets, BG9588 2 μg/mL + serum 0.2x
  % of Aggregation: 6%
[1]; Table 6, resting platelets, BG9588 2 μg/mL + serum 1.0x
  % of Aggregation: 9%
[1]; cross-linked with 2.22 μg/mL anti-hFc, ADP 1.0 μM (Table 5 lines 109 and 110)
  effect on platelet aggregation of cross-linked anti-CD40L antibody: increased aggregation
[1]; cross-linked with 20 μg/mL or 6.66 μg/mL anti-hFc
  effect on platelet aggregation of cross-linked anti-CD40L antibody: did not affect
[1]; cross-linked with anti-hFc, lower concentration of ADP
  enhancing effect on platelet aggregation of cross-linked anti-CD40L antibody: not observed
[1]; [3]
  effect on aggregation of resting platelets: do not induce
  effect on the aggregation of ADP-activated platelets: do not induce the aggregation of resting platelets or affect; also recorded: do not affect
[1]; result in words, listed as anti-CD40L antibody
  effect on aggregation of resting platelets: not affected
[1]; result in words
  effect on platelet aggregation: does not affect
[1]; result in words, listed as Research-grade anti-CD40L antibody
  effect on the aggregation of ADP-activated platelets: did not affect
[1]; with normal human serum (Table 6)
  effect on platelets in the presence of normal human serum: not affected

B1: sCD40L: recombinant soluble CD40 ligand prepared at Biogen, cross-linking agent (protein, UniProt P29965 47-261, looked up)
extracellular domain: HRRLDKIEDERNLHEDFVFMKTIQRCNTGERSLSLLNCEEIKSQFEGFVKDIMLNKEETKKENSFEMQKGDQNPQIAAHVISEASSKTTSVLQWAEKGYYTMSNNLVTLENGKQLTVKRQGLYYIYAQVTFCSNREASSQAPFIASLCLKSPGRFERILLRAANTHSSAKPCGQQSIHLGGVFELQPGASVFVNVTDPSQVSHGTGFTSFGLLKL
modifications: extracellular domain
notes: recombinant soluble CD40 ligand prepared at Biogen, cross-linking agent
[2]
  effect of preincubation on binding of biotin-conjugated anti-CD40L antibody to activated platelets: inhibited binding
